Source: patent US20230017266A1, “Cyclooxygenase-2 Inhibition for the Treatment of SAA-high Asthma” (THE USA, AS REPRESENTED BY THE SECRETARY, DEPT. OF HEALTH …, priority 2019, published 2023)

Assays:
CD14^+ monocytes = assay: HDL+SAA1-induced cytokine secretion by ex vivo CD14+ monocytes (ELISA); type: cell-based, human; details: for HDL+SAA1-mediated increases in cytokine secretion: 24 h
Experimental: Isolation of Peripheral Blood Monocytes. Peripheral blood monocytes were isolated using a two-step process. Peripheral blood was diluted with PBS at a 1:1 ratio, slowly overlaid onto 30 ml of Lymphoprep™ (catalog #07811, StemCell Technologies, Vancouver Canada) in a 50 ml conical tube, and centrifuged at 400×g for 25 min without braking. The peripheral blood mononuclear cell (PBMC) layer was carefully transferred to another 50 ml conical tube, washed with PBS, followed by two washes with FACS buffer (0.5 mM EDTA, 1% BSA, and 1% mouse serum in PBS). Monocytes subsets were identified and sorted by flow cytometry using the following antibodies: PE mouse anti-human CD45 clone HI30 (catalog #555483), BV421 mouse anti-human CD14 clone MφP9 (catalog #563743), and FITC mouse anti-human CD16 clone B73.1 (catalog #561308), and a FACS ARIA Fusion sorter equipped with 355, 407, 488, 532 and 640 nm LASER lines using FACS DIVA 8.0 software (all from BD Biosciences, San Jose, Calif.). The gating strategy identified a population of debris-free, single, live, ^SSCmoderate/high, CD45^+ cells from which CD14^+/CD16^− (classical), CD14^+/CD16^+ (intermediate), CD14^dim/CD16^+ (non-classical), and CD14^+ (classical and intermediate) cells were sorted and utilized for experiments, as indicated (Supplemental FIG. 4).
HDL+SAA1 Stimulation of Peripheral Blood Monocytes Subsets. […] As previously described, normal HDL was isolated from plasma obtained from healthy subjects by sequential KBr differential gradient ultracentrifugation at 330,000 g and extensive dialysis with 50 mM HEPES, 50 mM NaCL, 5 mM MgCl2 and 2 mM CaCl2, pH 7.0, at 4° C. Normal HDL was complexed with recombinant human serum amyloid A-1 at a 2:1 ratio by mixing and incubated at RT overnight to generate HDL+SAA1, which was filtered using a 100-kDa exclusion filter (Amicon Ultra Centrifuge Filters, Millipore, Darmstadt, Germany) to remove any uncomplexed SAA1. Normal HDL was also complexed with the amount of lipopolysaccharide (catalog # L4391, E. coli 0111:B4, y-irradiated, MilliporeSigma, St. Louis, Mo.) present in recombinant human SAA1. Additionally, classical CD14^+ monocytes were treated with the P2X7R antagonist, A438079, the IKK inhibitor, BAY-11-7082, the IKKβ (IKK-2) inhibitor, TPCA-1, or the selective COX-2 inhibitor, celexocib, all from MilliporeSigma(St. Louis, Mo.). Cells were also treated with the FPR2 antagonist, WRW4, or diclofenac from Tocris (Minneapolis, Minn.). The amount of IL-1β, IL-6, TNF-α and IL-10 secreted into cell culture supernatants was quantified using human DuoSet ELISA kits (R&D Systems) and data were acquired using a SpectraMax M2 spectrophotometer (Molecular Devices, San Jose, Calif.). Western blotting, as previously described^43, was performed using antibodies directed against COX-1 (catalog #160110) and COX-2 (catalog #160112), both from Cayman Chemical (Ann Arbor, Mich.). Equivalency of protein loading was established using an antibody directed against GAPDH (catalog #MAB5718) from R&D Systems (Minneapolis, Minn.). Western blots images were captured using an iBright FL1000 Western Blot Imaging System (ThermoFisher Scientific, Waltham, Mass.) and quantified using NIH ImageJ software (imagej.nih.gov). […]

miR-155-5p = miR-155-5p levels in CD14+ monocytes cultured with HDL+SAA1 (qRT-PCR); type: cell-based, human; details: 24 h
Experimental: Quantitative RT-PCR (qRT-PCR). Total RNA was purified using the Direct-Zol™ RNA MiniPrep kit and total RNA (100 ng) was reverse transcribed into cDNA using the High-Capacity cDNA Reverse Transcription Kit (Applied Biosystems, Foster City, Calif.). Polymerase chain reactions (PCR) were performed on duplicate cDNA samples using TaqMan Universal PCR Master Mix, FAM-MGB dye-labeled Taqman® PTGS2 probe (Assay ID Hs00153133_m1, catalog #4331182), and a 7900 Real Time PCR System running Sequence Detector version 2.4 software, all from Applied Biosystems (Foster City, Calif.). […] For quantification of miR-155-5p expression, miRNA present in total RNA (10 ng) was converted to cDNA using the microRNA cDNA Reverse Transcription kit (Applied Biosystems, Foster City, Calif.). Polymerase chain reaction (PCR) was performed on duplicate cDNA samples using TaqMan Universal PCR Master Mix, Taqman® MicroRNA Assay for has-miR-155-5p (Assay ID #002623, catalog #4427975), and a 7900HT Fast Real-Time PCR System running Sequence Detector version 2.4 software (ThermoFisher Scientific, Waltham, Mass.). miR-155-5p expression was quantified relative to expression of U6 snRNA using the control sample as calibrator to calculate the difference in Ct values (ΔΔCt) and presented as relative mRNA expression.

[1] = A438079 10 μM, pre-treated 1 h, HDL+SAA1 24 h

## Clc1cccc(-c2nnnn2Cc2cccnc2)c1Cl [A438079]
CD14^+ monocytes; [1]
  HDL+SAA1-mediated secretion of IL-1β: significantly reduced
  HDL+SAA1-mediated secretion of IL-6: significantly reduced
  HDL+SAA1-mediated secretion of IL-10: significantly reduced
  HDL+SAA1-mediated secretion of TNF-α: significantly reduced
miR-155-5p; A438079 10 μM
  HDL+SAA1-mediated increases in miR-155-5p: significantly reduced

## Cc1ccc(S(=O)(=O)/C=C/C#N)cc1 [BAY 11-7082]
CD14^+ monocytes; BAY-11-7082 10 μM
  HDL+SAA1-mediated increases in cytokine secretion: prevented
miR-155-5p; BAY-11-7082 10 μM
  HDL+SAA1-mediated increases in miR-155-5p: attenuated

## NC(=O)Nc1sc(-c2ccc(F)cc2)cc1C(N)=O [TPCA1]
CD14^+ monocytes; TPCA-1 1 μM
  HDL+SAA1-mediated increases in cytokine secretion: prevented
miR-155-5p; TPCA-1 1 μM
  HDL+SAA1-mediated increases in miR-155-5p: attenuated
